Measured values published in patent publication US7517658B2, “Methods for preparing compositions using a SNORF33 receptor” (H. Lundbeck A/S, priority 1999, dated 2009).

Legend:
rSNORF33 [1] = biological target: T1, rSNORF33 (Rattus norvegicus, UniProt Q923Y9); assay: [3H]-TYR binding (saturation and displacement) to rSNORF33-transfected COS-7 membranes; set-up: expressed in transfected cells; host or cells: COS-7 (transient); conditions: rSNORF33 in transfected COS-7 membranes; 2–4 experiments; read-out: Mean Ki ± S.D.M., displacement of [3H]-tyramine
T1 sequence (Q923Y9 whole entry): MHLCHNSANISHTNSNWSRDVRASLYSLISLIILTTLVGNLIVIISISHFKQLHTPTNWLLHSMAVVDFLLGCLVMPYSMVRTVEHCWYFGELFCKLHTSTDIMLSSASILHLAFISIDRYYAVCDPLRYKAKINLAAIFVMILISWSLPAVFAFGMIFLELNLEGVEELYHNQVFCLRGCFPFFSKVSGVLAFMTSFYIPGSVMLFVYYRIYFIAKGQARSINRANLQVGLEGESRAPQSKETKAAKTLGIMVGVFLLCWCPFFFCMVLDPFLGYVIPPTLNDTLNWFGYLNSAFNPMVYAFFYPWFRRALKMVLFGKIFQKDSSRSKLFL
Procedure: (§1) Radioligand binding assays were performed by diluting membranes prepared from cells expressing the receptor (with co-expression of the rat G-protein alpha S subunit for human SNORF33) in 25 mM Gly-Gly buffer (Sigma, pH=7.4 @ 0° C.) containing 5 mM ascorbate and 10 μM pargyline (final protein concentration in assay=100-300 μg/ml). Membranes were then incubated with either [^3H]-TYR (American Radiochemicals, specific activity 60 mCi/μmole) or [^3H]-T (Amersham, specific activity 98 mCi/μmole) in the presence or absence of competing ligands on ice for 30 min in a total volume of 250 μl in 96 well microtiter plates. The bound ligand was separated from free by filtration through GF/B filters presoaked in 0.5% polyethyleneimine (PEI), using Tomtec (Wallac) or Brandel Cell Harvester vacuum filtration device. After addition of Ready Safe (Beckman) scintillation fluid, bound radioactivity was quantitated using a Trilux (Wallac) scintillation counter (approximately 20% counting efficiency of bound counts). Data was fit to non-linear curves using GraphPad Prism.
(§2) In this manner, agonist or antagonist compounds that bind to the receptor may be identified as they inhibit the binding of the labeled ligand to the membrane protein of cells expressing the said receptor. Non-specific binding was defined as the amount of radioactivity remaining after incubation of membrane protein in the presence of 10 μM of the unlabeled amine corresponding to the radioligand used. In equilibrium saturation binding assays, membrane preparations or intact cells transfected with the receptor are incubated in the presence of increasing concentrations of the labeled compound to determine the binding affinity of the labeled ligand. The binding affinities of unlabeled compounds may be determined in equilibrium competition binding assays, using a fixed concentration of labeled compound in the presence of varying concentrations of the displacing ligands.

hSNORF33 = biological target: T2, hSNORF33 (Homo sapiens, UniProt Q96RJ0); assay: [3H]-TYR binding (saturation and displacement) to human SNORF33 COS-7 membranes; set-up: expressed in transfected cells; host or cells: COS-7 (membranes); conditions: human SNORF33 in transfected COS-7 membranes; read-out: Mean Ki ± S.D.M., displacement of [3H]-tyramine
T2 sequence (Q96RJ0 1-339): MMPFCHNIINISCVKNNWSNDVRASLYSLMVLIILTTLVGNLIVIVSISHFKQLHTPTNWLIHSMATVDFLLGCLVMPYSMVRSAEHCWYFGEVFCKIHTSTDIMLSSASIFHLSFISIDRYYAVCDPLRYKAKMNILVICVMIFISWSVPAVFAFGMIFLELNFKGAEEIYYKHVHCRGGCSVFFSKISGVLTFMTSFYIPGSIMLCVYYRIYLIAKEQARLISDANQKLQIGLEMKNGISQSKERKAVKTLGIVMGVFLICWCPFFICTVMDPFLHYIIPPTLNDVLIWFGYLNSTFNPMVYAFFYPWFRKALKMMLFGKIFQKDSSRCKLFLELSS
Procedure: as §1, with “[^3H]-TYR and [^3H]-T binding assays were performed essentially as described by Mallard et al. (1992), with minor modifications. Radioligand” for “Radioligand”
as §2

rSNORF33 [2] = biological target: T1, rSNORF33; assay: Intracellular cAMP release in rSNORF33-transfected COS-7 cells; assay type: cell-based; set-up: expressed in transfected cells; host or cells: COS-7 (transient); conditions: transiently transfected COS-7 cells; 3–8 experiments; read-out: Mean EC50 ± S.E.M., stimulation of rSNORF33 measured by intracellular cAMP release
Procedure: The receptor-mediated stimulation or inhibition of cyclic AMP (cAMP) formation may be assayed in cells expressing the mammalian receptors. Cells are plated in 96-well plates or other vessels and preincubated in a buffer such as HEPES buffered saline (NaCl (150 mM), CaCl2 (1 mM), KCl (5 mM), glucose (10 mM)) supplemented with a phosphodiesterase inhibitor such as 5 mM theophylline, with or without protease inhibitor cocktail (For example, a typical inhibitor cocktail contains 2 μg/ml aprotinin, […] leupeptin, and 10 μg/ml phosphoramidon.) for 20 min at 37° C., in 5% CO2. Test compounds are added with or without […] forskolin and incubated for an additional 10 min at 37° C. The medium is then aspirated and the reaction stopped by the addition of 100 mM HCl or other methods. The plates are stored at 4° C. for 15 min, and the cAMP content in the stopping solution is measured by radioimmunoassay. Radioactivity may be quantified using a gamma counter equipped with data reduction software. Specific modifications may be performed to optimize the assay for the receptor or to alter the detection method of cAMP.
COS-7 cells were transiently transfected with rSNORF33 gene using the calcium phosphate method and plated in 96-well plates. 48 hours after transfection, cells were washed twice with Dulbecco's phosphate buffered saline (PBS) supplemented with 10 mM HEPES, 10 mM glucose, 5 mM theophylline and 10 μM pargyline and were incubated in the same buffer for 20 min at 37° C., in […] 5% CO2. Test compounds were added and cells were incubated for an additional 10 min at 37° C. The medium was then aspirated and the reaction stopped by the addition of 100 mM HCl. The plates were stored at −20° C. for 2-5 days. For cAMP measurement, plates were thawed and the cAMP content in each well was measured by radioimmunoassay cAMP Scintillation Proximity Assay (Amersham Pharmacia Biotech). Radioactivity was quantified using microbeta Trilux counter (Wallac).

| SMILES | Ki (rSNORF33 [1]) [nM] | Ki (hSNORF33) [nM] | EC50 (rSNORF33 [2]) [nM] |
| --- | --- | --- | --- |
| NCC(O)c1ccc(O)cc1 (stereo not drawn) [Octopamine (OCT), Octopamine] | 310 ± 71 | 417 ± 285 | 135 ± 54 |
| NCCc1c[nH]c2ccccc12 [Tryptamine (T), Tryptamine] | 70 ± 14 | 1130 ± 372 | 17 ± 4 |
| NCCc1ccc(O)cc1 [Tyramine (TYR), Tyramine] | 13 ± 4 | 51 ± 11 | 9 ± 6 |
